Reference: PubChem BioAssay (NCI)
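Five concentrations, 48 hours, 96-well plates. Here, GI50 denotes the concentration required for 50% inhibition of growth. At the TGI there is no net growth.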

Assays:
Experiment in all cases: growth of human tumour cells (NCI), 48 h
786-0 renal = test system: 786-0 renal
A498 renal = test system: A498 renal
A549 NSCLC = test system: A549 NSCLC
ACHN renal = test system: ACHN renal
BT-549 breast = test system: BT-549 breast
CAKI-1 renal = test system: CAKI-1 renal
COLO 205 colon = test system: COLO 205 colon
DU-145 prostate = test system: DU-145 prostate
EKVX NSCLC = test system: EKVX NSCLC
HCC-2998 colon = test system: HCC-2998 colon
HCT-116 colon = test system: HCT-116 colon
HCT-15 colon = test system: HCT-15 colon
HOP-62 NSCLC = test system: HOP-62 NSCLC
HOP-92 NSCLC = test system: HOP-92 NSCLC
HS 578T breast = test system: HS 578T breast
HT29 colon = test system: HT29 colon
IGROV1 ovarian = test system: IGROV1 ovarian
K-562 leukemia = test system: K-562 leukemia
KM12 colon = test system: KM12 colon
LOX IMVI melanoma = test system: LOX IMVI melanoma
M14 melanoma = test system: M14 melanoma
MALME-3M melanoma = test system: MALME-3M melanoma
MCF7 breast = test system: MCF7 breast
MDA-MB-231 breast = test system: MDA-MB-231 breast
MDA-MB-435 = test system: MDA-MB-435
MOLT-4 leukemia = test system: MOLT-4 leukemia
NCI-H226 lung = test system: NCI-H226 lung
NCI-H23 lung = test system: NCI-H23 lung
NCI-H460 lung = test system: NCI-H460 lung
NCI-H522 lung = test system: NCI-H522 lung
NCI/ADR-RES ovarian = test system: NCI/ADR-RES ovarian
OVCAR-3 ovarian = test system: OVCAR-3 ovarian
OVCAR-4 ovarian = test system: OVCAR-4 ovarian
OVCAR-5 ovarian = test system: OVCAR-5 ovarian
OVCAR-8 ovarian = test system: OVCAR-8 ovarian
PC-3 prostate = test system: PC-3 prostate
RPMI-8226 leukemia = test system: RPMI-8226 leukemia
RXF 393 renal = test system: RXF 393 renal
SF-268 CNS = test system: SF-268 CNS
SF-295 CNS = test system: SF-295 CNS
SF-539 CNS = test system: SF-539 CNS
SK-MEL-2 melanoma = test system: SK-MEL-2 melanoma
SK-MEL-28 melanoma = test system: SK-MEL-28 melanoma
SK-MEL-5 melanoma = test system: SK-MEL-5 melanoma
SK-OV-3 ovarian = test system: SK-OV-3 ovarian
SN12C renal = test system: SN12C renal
SNB-19 CNS = test system: SNB-19 CNS
SNB-75 CNS = test system: SNB-75 CNS
SW-620 colon = test system: SW-620 colon
T-47D breast = test system: T-47D breast
TK-10 renal = test system: TK-10 renal
U251 CNS = test system: U251 CNS
UACC-257 melanoma = test system: UACC-257 melanoma
UACC-62 melanoma = test system: UACC-62 melanoma
UO-31 renal = test system: UO-31 renal

## N#Cc1ccccc1C#C/C=C\C#Cc1cccs1
786-0 renal
  GI50: 29.4 µM
  TGI: 84.1 µM
A498 renal
  GI50: 18.5 µM
  TGI: 54.3 µM
A549 NSCLC
  GI50: 25 µM
  TGI: > 100 µM
ACHN renal
  GI50: 32 µM
  TGI: > 100 µM
BT-549 breast
  GI50: 12.2 µM
  TGI: 94.8 µM
CAKI-1 renal
  GI50: 16 µM
  TGI: 78 µM
COLO 205 colon
  GI50: 14.3 µM
  TGI: 32.2 µM
DU-145 prostate
  GI50: 19.7 µM
  TGI: 77.3 µM
EKVX NSCLC
  GI50: 24.8 µM
  TGI: > 100 µM
HCC-2998 colon
  GI50: 28.3 µM
  TGI: > 100 µM
HCT-116 colon
  GI50: 11.7 µM
  TGI: 46 µM
HCT-15 colon
  GI50: 14.5 µM
  TGI: 83.1 µM
HOP-62 NSCLC
  GI50: 16.5 µM
  TGI: 61.4 µM
HOP-92 NSCLC
  GI50: 25.8 µM
  TGI: > 100 µM
HS 578T breast
  GI50: 8.03 µM
  TGI: 53.7 µM
HT29 colon
  GI50: 11.8 µM
  TGI: > 100 µM
IGROV1 ovarian
  GI50: 42.7 µM
  TGI: > 100 µM
K-562 leukemia
  GI50: 6.46 µM
  TGI: > 100 µM
KM12 colon
  GI50: 3.93 µM
  TGI: 16.8 µM
LOX IMVI melanoma
  GI50: 15.7 µM
  TGI: 92.4 µM
M14 melanoma
  GI50: 11.4 µM
  TGI: 56.5 µM
MALME-3M melanoma
  GI50: 19.5 µM
  TGI: 48.1 µM
MCF7 breast
  GI50: 6.07 µM
  TGI: 45.9 µM
MDA-MB-231 breast
  GI50: 26.1 µM
  TGI: > 100 µM
MDA-MB-435
  GI50: 2.11 µM
  TGI: 4.35 µM
MOLT-4 leukemia
  GI50: 8.19 µM
  TGI: > 100 µM
NCI-H226 lung
  GI50: 47 µM
  TGI: > 100 µM
NCI-H23 lung
  GI50: 33.2 µM
  TGI: > 100 µM
NCI-H460 lung
  GI50: 21.9 µM
  TGI: 75.8 µM
NCI-H522 lung
  GI50: 36.8 µM
  TGI: > 100 µM
NCI/ADR-RES ovarian
  GI50: 25.4 µM
  TGI: > 100 µM
OVCAR-3 ovarian
  GI50: 14.1 µM
  TGI: 34.2 µM
OVCAR-4 ovarian
  GI50: 34.9 µM
  TGI: > 100 µM
OVCAR-5 ovarian
  GI50: 70.7 µM
  TGI: > 100 µM
OVCAR-8 ovarian
  GI50: 30.3 µM
  TGI: > 100 µM
PC-3 prostate
  GI50: 28.6 µM
  TGI: > 100 µM
RPMI-8226 leukemia
  GI50: 11.1 µM
  TGI: 51.2 µM
RXF 393 renal
  GI50: 14.9 µM
  TGI: 48.1 µM
SF-268 CNS
  GI50: 19.1 µM
  TGI: 55.7 µM
SF-295 CNS
  GI50: 13.8 µM
  TGI: 31.9 µM
SF-539 CNS
  GI50: 14.4 µM
  TGI: 34.1 µM
SK-MEL-2 melanoma
  GI50: 62.8 µM
  TGI: > 100 µM
SK-MEL-28 melanoma
  GI50: 14.8 µM
  TGI: > 100 µM
SK-MEL-5 melanoma
  GI50: 14.5 µM
  TGI: 39 µM
SK-OV-3 ovarian
  GI50: 28.9 µM
  TGI: > 100 µM
SN12C renal
  GI50: 33 µM
  TGI: > 100 µM
SNB-19 CNS
  GI50: 45.8 µM
  TGI: > 100 µM
SNB-75 CNS
  GI50: 26.2 µM
  TGI: > 100 µM
SW-620 colon
  GI50: 7.78 µM
  TGI: > 100 µM
T-47D breast
  GI50: 12.6 µM
  TGI: > 100 µM
TK-10 renal
  GI50: 20.7 µM
  TGI: 62.5 µM
U251 CNS
  GI50: 16.4 µM
  TGI: 67.1 µM
UACC-257 melanoma
  GI50: 32.5 µM
  TGI: > 100 µM
UACC-62 melanoma
  GI50: 12.3 µM
  TGI: > 100 µM
UO-31 renal
  GI50: 46.5 µM
  TGI: > 100 µM
